Measurements published in patent US20070225312A1, “TERGURIDE / PROTERGURIDE FOR THE TREATMENT OF CHRONIC PAIN” (ERGONEX PHARMA GMBH, priority 2006, published 2007).

What was measured:
[1] = test system: patient with migrainous headaches; test: Migraine prophylaxis case; format: in vivo, human
Protocol: The patient suffered from migrainous headaches with an average of 4-5 attacks per month, lasting on average between 3 and 8 hours. For acute pain treatment during an attack, a dosage of 50 mg of sumatriptan was administered orally. For the purpose of migraine prophylaxis, the patient was treated with topiramate in a dosage of 200 mg per day. […] Under administration of terguride (2×0.25 mg per day), the number of pain attacks decreased considerably to only one pain attack within 6 weeks with low pain intensity; also, the well-being of the patient improved within 2 weeks after the start of the therapy.

[2] = test system: patient with herniated disc, chronic pain; test: Herniated disc chronic pain case, co-therapy with oxycodone
[3] = test system: patient suffering from fibromyalgia; test: Application of proterguride in the case of fibromyalgia (single patient); format: in vivo, human; settings: daily dose 0.5 mg
Protocol: A patient suffering from fibromyalgia was treated with proterguride.
The patient complained about stomach problems, stomach pains, pains in the chest as well as about swollen breasts and continuous exhaustion and tiredness. The discomforts had persisted for approx. one year. No pretreatment had been realized prior to the treatment with proterguride.
The patient was treated with a daily dose of 0.5 mg of proterguride which was administered in the morning and in the evening. The treatment was realized gradually.
The treatment was realized over a period of 33 weeks and the condition of the patient was examined weekly. After just 12 weeks, the condition had improved, particularly regarding the pains in the chest.

[4] = test system: patient with postherpetic neuralgia; test: Postherpetic neuralgia case; format: in vivo, human; settings: for pains under prior treatment: amitriptyline 3x50 mg/d, subsequently gabapentin 1500 mg daily, considerable deterioration within 10 days
Source text: A patient of normal weight complained about a severe burning sensation and pains in the dermal area of the chest.

[5] = test system: patient with diabetic neuropathy; test: Diabetic neuropathy case (numerical rating scale); format: in vivo, human
Protocol: About 15 months ago, a diabetic neuropathy was clinically diagnosed in a patient who has been suffering from Type 2 Diabetes for 10 years. The patient was treated with 3×50 mg amitryptiline/day. At the time of the examination, the patient complained about pain conditions associated with burning sensations, shooting or stabbing pains and unpleasant formication, mainly in the feet and with increasing intensity during the night. On the numerical rating scale from 0=no pain to 10=maximum pain intensity, the patient reported mean pain values of 8-9 on average.
Under therapy with terguride (0.5 mg b.i.d.) the pain conditions and the general condition of the patient improved quickly (average pain value of 2-3 on the rating scale).

[6] = test system: tumor patient with bone pains from bone metastases; test: Tumor associated pain case; format: in vivo, human; settings: 0.5 mg bid
Protocol: A tumor patient suffering from a pancreatic carcinoma complained about bone pains resulting from the development of bone metastases. The patient was treated with ibandronate. Additionally, the treatment was realized with ibuprofen, acetaminophen and desipramine. […] After the start of the therapy with terguride (0.5 mg bid) the patient's pain conditions were reduced and the well-being improved continuously.

[7] = test system: patient suffering from migraine; test: Application of terguride for the prophylaxis of migraine (single patient, diary); format: in vivo, human; settings: daily dose 2 mg
Protocol: A patient, suffering from migraine on average four times a month, was treated with terguride. The patient was treated with a daily dose of 2 mg terguride which was administered in the morning and in the evening in single doses of 1 mg. The treatment was realized gradually. […] The patient was treated over a period of 24 weeks. The frequency, duration and severity of the migraine attacks were recorded by means of a diary. Within 4 weeks following the start of the treatment, a reduction of 40% of the frequency of migraine attacks could be shown, as well as a reduction of the attack duration from cumulative 12 days before the therapy to 8 days under terguride. The consumption of pain medication under therapy with terguride was reduced by 46%. […] The patient reported an improvement of […] general condition.

[8] = test system: patient suffering from fibromyalgia; test: Application of terguride in the case of fibromyalgia (single patient); format: in vivo, human
Protocol: A patient suffering from fibromyalgia was treated with terguride. The patient complained about chronic pain in the extremities as well as about stomach pains and continuous exhaustion and tiredness. The discomforts had persisted for several months. No pretreatment had been realized prior to the treatment with terguride. The patient was treated with a daily dose of 3 mg of terguride which was administered in the morning and in the evening in single doses of 1.5 mg. The treatment was realized gradually. […] The treatment was realized over a period of 25 weeks and the condition of the patient was examined weekly.

[9] = test system: patient suffering from mastalgia and stomach pains due to premenstrual syndrome; test: Application of terguride in the case of mastalgia/premenstrual syndrome (single patient); format: in vivo, human
Protocol: A patient suffering from mastalgia and stomach pains due to premenstrual syndrome was treated with terguride. […] The therapy started in the middle of the cycle. Twice a day, a tablet containing 0.5 mg terguride was administered to the patient over a period of 3 months. The pain severity was observed by means of a visual analogue scale. During the therapy, the pains in the chest and stomach area decreased and the patient was able to renounce on the administration of additional pain medication.

CC1(C)O[C@@H]2[C@@H](CO[C@@]3(COS(N)(=O)=O)OC(C)(C)O[C@@H]23)O1 [topiramate, reference compound]
migraine activity ([1]; topiramate 200 mg per day): No reduction of the migraine activity
adverse effects leading to discontinuation ([1]; topiramate 200 mg per day, after 3 months): nausea and weight loss

COc1ccc2c3c1O[C@H]1C(=O)CC[C@@]4(O)[C@@H](C2)N(C)CC[C@]314 [oxycodone, reference compound]
pain intensity ([2]; oxycodone alone, 2x10 mg increased to 2x40 mg per day): considerably reduced
constipation complaints ([2]; oxycodone alone, longer treatment, required dose reduction to 2x20 mg/day): the more complaints occurred due to constipation

CCCN1C[C@@H](NC(=O)N(CC)CC)C[C@@H]2c3cccc4[nH]cc(c34)C[C@H]21 [proterguride]
condition, particularly pains in the chest ([3]; after 12 weeks): improved
swelling of breasts ([3]; after 12 weeks): reduction of the swelling
chronic tiredness and exhaustion and stomach pains ([3]; after 20 weeks): largely disappeared
overall condition of the patient ([3]; after 30 weeks): in the same condition as before the onset of the disease

CN(C)CCC=C1c2ccccc2CCc2ccccc21 [amitriptyline, reference compound]
pains under prior treatment [4]: only to a short-term improvement
mean pain values on numerical rating scale (0=no pain to 10=maximum pain intensity) ([5]; at examination, patient treated with 3x50 mg/day, before terguride): 8-9

CCN(CC)C(=O)N[C@H]1C[C@@H]2c3cccc4[nH]cc(c34)C[C@H]2N(C)C1 [terguride]
efficacy under chronic therapy ([2]; chronic therapy): remained efficient
pain ([2]; co-therapy terguride 2x0.5 mg/day with oxycodone 2x20 mg/day): almost completely pain-free
pain conditions [6]: reduced
side effects [6]: No side effects were observed
side effects ([4]; 0.5 mg t.i.d.): No side effects were observed
pain on gradual dose reduction (treatment-free interval) ([4]; after 3 months, daily dose gradually reduced): the pain increased quickly
pain presentation ([4]; terguride 0.5 mg t.i.d.): improved in a fast and continuous manner
side effects ([7]; 24 weeks): No side effects
attack duration (cumulative) ([7]; under terguride, versus 12 days before the therapy): 8 days
reduction of consumption of pain medication ([7]; under therapy): 46%
reduction of the frequency of migraine attacks ([7]; within 4 weeks following start of treatment): 40%
side effects ([1]; terguride 2x0.25 mg per day): No side effects were observed
time to improvement of well-being after start of therapy ([1]; terguride 2x0.25 mg per day): ≤ 2 weeks
number of pain attacks within 6 weeks ([1]; terguride 2x0.25 mg per day, before: 4-5 attacks per month, low pain intensity): one
migraine presentation after discontinuation (treatment-free interval) ([1]; terguride discontinued): the migraine presentation returned
condition, in particular pains in the extremities and stomach pains (visual analog scale) ([8]; daily dose 3 mg (2 x 1.5 mg), after 10 weeks): visibly improved
chronic conditions of tiredness and exhaustion ([8]; daily dose 3 mg, after 17 weeks): nearly impossible to detect
side effects ([5]; 0.5 mg b.i.d.): No side effects
loss of efficacy under continuous treatment ([5]; 0.5 mg b.i.d., continuous treatment): No signs of an loss of efficacy
average pain value on numerical rating scale (0=no pain to 10=maximum pain intensity) ([5]; under terguride 0.5 mg b.i.d.): 2-3
general condition and joy of life ([9]; 0.5 mg twice a day, 3 months): considerably improved
pains in the chest and stomach area (visual analogue scale) ([9]; 0.5 mg twice a day, 3 months): decreased
side effects ([9]; 0.5 mg twice a day, 3 months): No side effects were observed
symptoms during the following months under therapy ([9]; continued therapy): remained symptom-free

NCC1(CC(=O)O)CCCCC1 [gabapentin, reference compound]
pains under prior treatment [4]: only to a short-term improvement
